What all share (format): in vivo, Swiss albino mice
Data set [1] relates to mice. Briefly: Tail suspension test in mice. Conditions: 64 mg/kg p.o. An excerpt: Effect of Test Compound on Tail Suspension in Mice
This test is used to evaluate potential antidepressants by determining the percentage decrease in immobility in rodents. […] Clinically effective anti-dependents reduce the immobility that mice display after active and unsuccessful attempts to escape when suspended by tail.
Swiss albino mice of either sex weighing 25-30 g would be housed in plastic cages for at least 10 days prior to testing. Animals would be allowed to adapt to the testing environment for 1 hr before testing. […] For the test, the mice would be suspended on the edge of a shelf 58 cm above a tabletop by adhesive tape placed approximately 1 cm from the tip of the tail. The duration of immobility would be recorded for a period of 6 min continuously. Mice are considered immobile when they hang passively and completely motionless for at least […].
The percentage of animals showing the passive behavior is counted and compared with vehicle treated controls using various doses.

In data set [2] the test system is re uptake of serotonin. Briefly: 5-Hydroxytryptophan (L 5-HTP) potentiation in mice. Conditions: 64 mg/kg p.o. As for the experimental part: 5-Hydroxytryptophan (L 5-HTP) Potentiation in Mice
Several antidepressant agents potentiate serotonin effects by a block of the re uptake of serotonin. 5-Hydroxytryptophan is used as the precursor of serotonin.
Groups of 6 Swiss albino mice (25-30 g) would be used. […] The mice would be then placed into glass bell jars and the number of head twitches would be counted in five 2-min intervals (between 14 and 16, 24 and 26, 34 and 36, 44 and 46 and 54 and 56 min).

In data set [3] the test system is mice. Briefly: Locomotor activity in mice (Actophotometer). As for the experimental part: Effect of Test Compound on Locomotor Activity in Mice This test is conducted to rule out the sedative aspect of the anti-depressants. Besides, it can also eliminate certain muscle relaxant effects of the drug. Swiss albino mice are tested in a locomotors chamber with laser sensors to check their movements. The locomotors score is a direct function of the mobility of the animal. Decrease in mobility could be due to sedative effect and muscle relaxant effect. Swiss albino mice of either sex weighing 25-30 g would be housed in plastic cages for at least 10 days prior to testing. Animals would be allowed to adapt to the testing environment for 1 hr before testing. […] For the test the mice would be individually placed in Actophotometer.

The subject of data set [4] is mice. Briefly: Locomotor activity test after reserpine administration. The procedure:
The intra-peritoneal administration of reserpine (5 mg/kg, i.p.) in mice leads to reduce locomotor activity which can be antagonized by antidepressants, MAO-inhibitors and central stimulants. Male Swiss albino mice weighing 25-30 g would be used.

Data set [5] relates to mice. Briefly: Forced swim test after reserpine administration. As for the experimental part: Reserpine Antagonism Depletion of biogenic amines in brain induces not only catalepsy but also hypothermia in rodents. The decrease of body temperature induced by reserpine is antagonized by antidepressants, MAO-inhibitors and central stimulants. Reserpine also decreases the levels of brain neuroamines like serotonin. […] Forced Swim Test after Reserpine Administration Male Swiss albino mice weighing 25-30 g would be used. All the animals would be Pre trained individually to swim for 15 minutes in vertical plexiglass cylinder (25×23 cm) containing 12 cm of water maintained at 25° C. They would be injected with 5 mg/kg reserpine i.p. after 20 hr of pretraining.

The test system of data set [6] is mice. Briefly: Forced swim test. Conditions: 100 mg/kg p.o. The procedure: Mice forced to swim in a restricted space from which they cannot escape are induced to a characteristic behavior of immobility.
Male Swiss albino mice weighing 25-30 g would be brought into the laboratory at least one day before the experiment and would be housed separately in cages. Mice would be individually forced to swim inside a vertical Plexiglas cylinder (25×23 cm) containing 12 cm of water maintained at 25° C.
After 2-3 min activity begins to subside and to be interspersed with phases of immobility or floating of increasing length. After 5-6 min immobility reaches a plateau where the mice remain immobile for approximately 80% of the time. After 15 min in the water the mice would be removed and would be allowed to dry in a heated enclosure (32° C.) before being returned to their home cages. They would again be placed in the cylinder 24 hr later and the total duration of immobility would be counted for the last 4 min of 6 min test session. An animal is judged to be immobile whenever it remains floating passively in the water in a slightly hunched but upright position, its nose just above the surface.

`CN(C)CCCN1c2ccccc2CCc2ccccc21` [Imipramine]: the “TOTAL IMMOBILITY TIME” value in data set [1] (60 min before test, 6 min recording) stood at 90.90 ± 7.690 s; in data set [5] (100 mg/kg oral, 4 h after reserpine 5 mg/kg i.p., 6 min swim), 063.57 ± 3.320 s; in data set [6] (one hour before test, last 4 min of 6 min session), 45.17 ± 4.450 s. For the same compound, the “% DECREASE IN IMMOBILITY” value in data set [1] (vs vehicle group) turned out to be 51.88%; in data set [5] (100 mg/kg oral, vs reserpine group), 71.24%; in data set [6] (vs vehicle group), 71.44%. Besides, the “TOTAL NO OF HEAD TWITCHES MEAN ± SEM” value in data set [2] (60 min before 75 mg/kg i.p. 5-HTP) is 13.25 ± 2.477. The “% INCREASE IN NO OF HEAD TWITCHES” value in data set [2] (vs vehicle group) was −38.73%. Also, in data set [3] (64 mg/kg p.o., 60 min before test, 10 min count), the “TOTAL LOCOMOTOR ACTIVITY COUNTS” value came to 127.00 ± 06.90. Besides, the “% INCREASE IN LOCOMOTOR ACTIVITY” value in data set [3] (64 mg/kg p.o., vs vehicle group) is recorded as −38.80%; in data set [4] (64 mg/kg oral, vs reserpine group), 079.91%. Further, in data set [3] (mice, locomotor activity test), the “sedative effect (in words)” value is “induces sedation”.
In the case of `COC(=O)[C@H]1[C@H]2C[C@@H]3c4[nH]c5cc(OC)ccc5c4CCN3C[C@H]2C[C@@H](OC(=O)c2cc(OC)c(OC)c(OC)c2)[C@@H]1OC` [Reserpine], the “TOTAL LOCOMOTOR ACTIVITY COUNTS” value in data set [4] (reserpine 5 mg/kg i.p. alone) came out at 121.17 ± 06.112. Moreover, the “TOTAL IMMOBILITY TIME” value in data set [5] (reserpine 5 mg/kg i.p. alone) came out at 221.60 ± 6.793 s.
